Patent US20010039952A1, “ULTRASOUND ENHANCED CHEMOTHERAPY” (Walter A. Hacker, Ph. D, priority 1998, published 2001)

Key:
[1] = tested on: peritoneal carcinomatosis; assay: Instillation of chemotherapy directly into the abdomen with low energy ultrasound in a patient with peritoneal carcinomatosis (Examples III, IV); type: in vivo; details: with ultrasound at less than 100 kHz and less than 50 W; intraperitoneal instillation
Experimental: The chosen drug is dissolved in 100 ml of normal saline, injected into the catheter and followed by another 100 ml of normal saline for flushing. The patient's position is shifted every few minutes for an hour to disperse the drug. […] The chosen drug is bleomycin (15 units), 5-fluorouracil(1000 mg), thiotepa (45 mg) Adriamycin (30 mg) cisplatin, or a-IFN.
The procedure set forth in Example III is repeated with the chosen drug administered with microbubbles and the interval of repeated doses is further increased.

[2] = tested on: hepatic metastases; details: human, in vivo

Compound | interval of repeated doses [1] | drug toxicity [2]
COc1cccc2c1C(=O)c1c(O)c3c(c(O)c1C2=O)C[C@@](O)(C(=O)CO)C[C@@H]3O[C@H]1C[C@H](N)[C@H](O)[C@H](C)O1 [Adriamycin, Doxorubicin] | increases the interval of repeated doses | less drug toxicity
N.N.[Cl][Pt][Cl] [cisplatin] | increases the interval of repeated doses | 
O=c1[nH]c(=O)n([C@H]2C[C@H](O)[C@@H](CO)O2)cc1F [flexuridine] |  | less drug toxicity
O=c1[nH]cc(F)c(=O)[nH]1 [fluorouracil] | increases the interval of repeated doses | less drug toxicity
S=P(N1CC1)(N1CC1)N1CC1 [thiotepa] | increases the interval of repeated doses | 
bleomycin | increases the interval of repeated doses | 
